Results reported in patent US20220241306A1, “CHITIN ANALOGS FOR THE TREATMENT OF KIDNEY DISEASES” (AyuVis Research, Inc., priority 2021, published 2022).

Tests used:
IL-1β = experiment: RT-PCR of kidney tissue, glycerol-treated mice: IL-1β; format: in vivo, mouse; conditions: whole kidney tissue, RT-PCR vs GAPDH
Excerpt: (§1) Mouse model for acute kidney injury. Eight to ten weeks old male C57 BL/6J mice (n=5-7 per group, male and female) were utilized to induce acute kidney injury. Animals were randomized before treatment. Littermates or co-housed animals were chosen for this study. The mice were kept without water but unlimited access to chow for −24 hrs. In first study, nine ml per kg body weight of 1:1 diluted glycerol was intramuscularly injected followed by intraperitoneal administration of either compound 2 (5 mg/kg) or compound 8 (2.5 mg/kg body weight) at 1, 6 and 24 hrs post glycerol dosing. In a second study, AVR-48 was injected either at 5.0 mg/kg/dose or 10 mg/kg/dose IP after 3 h of glycerol administration and was dosed 2/day for 3 days (total 7 doses) and survival was monitored till 8 days.
(§2) The mice were sacrificed, and bloods were collected by heart puncture. Serum samples were stored at −80° C. for future use. Kidney, spleens, lungs and liver were immediately fixed in 10% buffered formalin for histopathological analysis. Part of the kidney were snap frozen for RNA isolation.
(§3) RNA isolation and RT-PCR. RNA was isolated from snap-frozen kidney samples by using RNA plus micro kit (Qiagen) according to manufacturer's instruction. c-DNA were prepared by Quanta-Bio-C-DNA kit. […] The expression of various genes was analyzed in comparison to GAPDH. […]

[1] = test system: glycerol induced damage of kidney tissues; experiment: H/E staining of mouse whole kidney tissue after glycerol; format: in vivo; conditions: N=5
Excerpt: as §1, §2

cyclooxygenase-2 (Cox-2) = experiment: RT-PCR of whole kidney tissue, glycerol-treated mice: Cox-2 mRNA; format: in vivo, mouse; conditions: vs glycerol injection
Excerpt: as §1, §2
RNA isolation and RT-PCR. RNA was isolated from snap-frozen kidney samples by using RNA plus micro kit (Qiagen) according to manufacturer's instruction. c-DNA were prepared by Quanta-Bio-C-DNA kit. […] The expression of various genes was analyzed in comparison to GAPDH.

[2] = test system: mechanical ventilator induced kidney injury; experiment: Preterm lamb model of mechanical ventilator induced kidney injury: renal cortical histology; format: in vivo; conditions: 3.0 mg/Kg twice daily IV during mechanical ventilation, vs vehicle (saline)
Experimental: (§4) A unique PT lamb model, developed by Dr. Albertine (University of Utah), was used to emulate the clinical setting for PT human infants with respiratory failure related to premature birth before the lungs are mature enough to support extra-uterine life.
(§5) A dose range-finding study was conducted with the goal of treating 2-3 PT lambs with either a vehicle control or AVR-48 (compound 8, 3mg/kg/dose) by twice daily intravenous infusions during 6 to 7 days of mechanical ventilation, followed by transition to noninvasive respiratory support (NIS) for 3 days, for a total of 10 days of management of these PT lambs. AVR-48 was not given during the period of noninvasive respiratory support to assess short-term persistence of effect of AVR-48. Detailed methods have been published previously by Reyburn et al. and Null et al (Reyburn, Li et al. 2008, Null, Alvord et al. 2014), relevant portions incorporated herein by reference. All protocols have been adhered to APS/NIH guidelines for animal research and have been approved by the Institution Animal Care and Use Committees (IACUC) at the University of Utah.
FIGS. 11A and 11B compare renal cortical histology from the preterm lamb treated with 3.0 mg/Kg of AVR-48 (FIG. 11A) versus the vehicle-treated lamb (saline; FIG. 11B). Renal cortical histology is normal in the 3.0 mg/Kg AVR-48-treated lamb. […]

[3] = test system: mechanical ventilator induced kidney injury; experiment: Preterm lamb model of mechanical ventilator induced kidney injury: BUN; format: in vivo; conditions: day 10, after 7 days of treatment on invasive mechanical ventilator
Experimental: as §4, §5
Fetal lamb is term lamb control. N=2-3, **p<0.01, *** student t test (2-tailed), Dunnett's multiple comparison test.

glycerol-induced AKI = experiment: Mouse model for acute kidney injury (glycerol-induced): serum creatinine, BUN, proteinuria; format: in vivo; conditions: for blood urea nitrogen (BUN) level in serum / serum creatinine level: glycerol IM, compound 2 (5 mg/kg) or compound 8 (2.5 mg/kg) IP at 1, 6 and 24 hrs post glycerol, vs glycerol controls
Excerpt: Mouse model for acute kidney injury. Eight to ten weeks old male C57 BL/6J mice (n=5-7 per group, male and female) were utilized to induce acute kidney injury. Animals were randomized before treatment. Littermates or co-housed animals were chosen for this study. The mice were kept without water but unlimited access to chow for −24 hrs. In first study, nine ml per kg body weight of 1:1 diluted glycerol was intramuscularly injected followed by intraperitoneal administration of either compound 2 (5 mg/kg) or compound 8 (2.5 mg/kg body weight) at 1, 6 and 24 hrs post glycerol dosing. In a second study, AVR-48 was injected either at 5.0 mg/kg/dose or 10 mg/kg/dose IP after 3 h of glycerol administration and was dosed 2/day for 3 days (total 7 doses) and survival was monitored till 8 days. Proteinuria was measured in urine at 24 hrs before sacrifice of the animals by an albustix proteinuria strip. The mice were sacrificed, and bloods were collected by heart puncture. Serum samples were stored at −80° C. for future use. Kidney, spleens, lungs and liver were immediately fixed in 10% buffered formalin for histopathological analysis. Part of the kidney were snap frozen for RNA isolation. To evaluate the effect of AVR-48 and AVR-123 on acute kidney injury, the inventors measured the vital parameters of kidney injury, i.e., levels of creatinine and blood urea nitrogen (BUN) in the serum of animals treated with AVR-48 and AVR-123 along with glycerol treated positive controls. PBS treated animals were considered as sham. […] N=4-7 mice. *p=0.02, **p=0.00′7, and ***p=0.0004, One-way ANOVA, Dunnett's multiple comparison test. […] N=4-7 mice, each sample run in duplicates. ****p<0.0001, One-way ANOVA, Dunnett's multiple comparison test.

[4] = test system: glycerol induced rhabdomyolysis model; experiment: Survival in glycerol induced rhabdomyolysis model; format: in vivo, mouse; conditions: 10 mg/kg/dose IP from 3 h after glycerol, 2/day for 3 days; monitored till 8 days; vs glycerol+saline, p<0.05
Excerpt: as §1
FIG. 9 is a graph showing survival curve of the mouse in a glycerol induced rhabdomyolysis model when dosed after 3 h of glycerol administration.

TNF-α = experiment: RT-PCR of kidney tissue, glycerol-treated mice: TNF-α; format: in vivo, mouse; conditions: whole kidney tissue, RT-PCR vs GAPDH
Excerpt: as §1, §2, §3

NGAL = experiment: RT-PCR of kidney cortical tissue, glycerol-treated mice: NGAL; format: in vivo, mouse; conditions: kidney cortical tissue (FIG. 7B); vs glycerol
Excerpt: as §1, §2, §3

hemeoxygenase-1 (OH-1) = experiment: RT-PCR of kidney cortical tissue, glycerol-treated mice: hemeoxygenase-1; format: in vivo, mouse; conditions: kidney cortical tissue (FIG. 7A); vs glycerol
Excerpt: as §1, §2, §3

IL-10 = experiment: RT-PCR of kidney tissue, glycerol-treated mice: IL-10; format: in vivo, mouse
Excerpt: as §1, §2
RNA isolation and RT-PCR. […] The expression of various genes was analyzed in comparison to GAPDH.
FIGS. 6A and 6B are graphs that show the level of the anti-inflammatory cytokine IL-10 in the whole kidney tissue (FIG. 6A) and in kidney cortex tissue (FIG. 6B) with or without AVR-48 treatment as determined by RT-PCR experiment. […]

Compound	level of IL-1β in kidney tissue (IL-1β)	H/E staining of whole kidney tissue [1]	Cox-2 mRNA level in whole kidney tissue (cyclooxygenase-2 (Cox-2))	renal cortical histology [2]	BUN at day 10 [3]	blood urea nitrogen (BUN) level in serum (glycerol-induced AKI)	serum creatinine level (glycerol-induced AKI)	total proteinuria level (glycerol-induced AKI; urine at 24 hrs, albustix proteinuria strip, vs glycerol treated mice)	survival [4]	level of TNF-α in kidney tissue (TNF-α)	level of NGAL in kidney cortical tissue (NGAL)	level of hemeoxygenase-1 (OH-1) in kidney cortical tissue (hemeoxygenase-1 (OH-1))	level of IL-10 in kidney cortex tissue (IL-10; kidney cortex tissue, RT-PCR (FIG. 6B), vs glycerol treated group)	level of IL-10 in whole kidney tissue (IL-10; whole kidney tissue, RT-PCR (FIG. 6A))
CC(=O)N[C@@H]1C(Oc2ccc([N+](=O)[O-])cc2)OC(CO)C(O)C1O (stereo partly shown) [AVR-48]	significantly decreased the level	significant protection of kidney tissues	decreased significantly	normal	decreased BUN	significantly reduced	significantly reduced	decreased proteinuria levels	significant difference in survival	significantly decreased the level	decreased	decreased the level significantly	decreased the level and brought it back close to normal	significantly high
CC(=O)NC1[C@H](Oc2ccc(C(=O)N[C@@H]3OC(COC(C)=O)[C@@H](OC(C)=O)[C@H](OC(C)=O)C3NC(C)=O)cc2)OC(CO)[C@@H](O)[C@@H]1O (stereo partly shown) [AVR-123]	–	–	–	–	–	significantly reduced	significantly reduced	–	–	–	–	–	–	–
